Assay results published in article PMC5697638, “Identification of a Potent Phosphoinositide 3‐Kinase Pan Inhibitor Displaying a Strategic Carboxylic Acid Group and Development of Its Prodrugs” (Chemmedchem, 2017).

Tested on: PC3 cells
Assay: analysis of apoptosis, Annexin V staining
Type: cell-based
Conditions: 10 μM, 48 h
Procedure: Analysis of apoptosis: For Annexin V staining of apoptotic cells, PC3 cells were seeded at 4×10^5 cells per 6 cm dish in triplicate. Cells were incubated 48 h in the presence or absence of 10 μM 64 and were then detached with 0.1 % trypsin–EDTA, resuspended in Annexin buffer (10 mM HEPES, pH 7.4, 140 mM NaCl, 2.5 mM CaCl2), and stained for Annexin V (FITC Annexin V #640906, BioLegend, USA). Samples were analyzed by using a FACS‐Calibur flow cytometer (Becton Dickinson Immunocytometry Systems, San Jose, USA).

## COC(=O)c1cccc(Cn2cc(-c3cccc4c(=O)cc(N5CCOCC5)[nH]c34)nn2)c1 [Compound 64, Methyl 3‐{[4‐(2‐morpholino‐4‐oxo‐1,4‐dihydroquinolin‐8‐yl)‐1H‐1,2,3‐triazol‐1‐yl]methyl}benzoate]
  effect on cell apoptosis: did not show any effect in inducing cell apoptosis
